Assay results from PubChem BioAssay AID248 (DTP/NCI, 2004).
Values joined by “and” are separate entries in the source; they are usually repeats but may differ in a detail not shown here. Identical values can stand only once. Toxic doses and inconclusive results are not listed. Cut-off read from the data, not from the text of the source: active = T/C of 150% or more; inactive = T/C below 125%.

Test system: L1210 leukemia ip in BDF1 mice, survival T/C
Assay: NCI In Vivo Anticancer Drug Screen. Data for tumor model L1210 Leukemia (intraperitoneal) in B6D2F1 (BDF1) mice
Conditions: endpoint: mean survival time, higher = longer survival
Method in brief: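 In this screen, tumor-bearing mice given compound are compared to those given vehicle, and their survival values are reported as a treated-to-control quotient.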

[1] = dose: 100.0 mg/kg/injection, schedule: Q01DX001 (ip), vehicle: carboxymethylcellulose (CMC)
[2] = dose: 200.0 mg/kg/injection, schedule: Q01DX001 (ip), vehicle: carboxymethylcellulose (CMC)
[3] = dose: 400.0 mg/kg/injection, schedule: Q01DX001 (ip), vehicle: carboxymethylcellulose (CMC)
[4] = dose: 100.0 mg/kg/injection, schedule: Q04DX002 (ip), vehicle: saline with Tween-80
[5] = dose: 200.0 mg/kg/injection, schedule: Q04DX002 (ip), vehicle: saline with Tween-80
[6] = dose: 400.0 mg/kg/injection, schedule: Q04DX002 (ip), vehicle: saline with Tween-80
[7] = dose: 50.0 mg/kg/injection, schedule: Q01DX009 (ip), vehicle: saline with Tween-80
[8] = dose: 100.0 mg/kg/injection, schedule: Q01DX009 (ip), vehicle: saline with Tween-80
[9] = dose: 100.0 mg/kg/injection, schedule: Q04DX003 (ip), vehicle: saline
[10] = dose: 100.0 mg/kg/injection, schedule: Q01DX009 (ip), vehicle: Klucel (hydroxypropylcellulose) (HPC)
[11] = dose: 200.0 mg/kg/injection, schedule: Q01DX009 (ip), vehicle: Klucel (hydroxypropylcellulose) (HPC)
[12] = dose: 400.0 mg/kg/injection, schedule: Q01DX009 (ip), vehicle: Klucel (hydroxypropylcellulose) (HPC)
[13] = dose: 100.0 mg/kg/injection, schedule: Q01DX009 (ip), vehicle: saline
[14] = dose: 200.0 mg/kg/injection, schedule: Q01DX009 (ip), vehicle: saline
[15] = dose: 50.0 mg/kg/injection, schedule: Q01DX001 (ip), vehicle: saline
[16] = dose: 200.0 mg/kg/injection, schedule: Q01DX001 (ip), vehicle: saline
[17] = dose: 100.0 mg/kg/injection, schedule: Q01DX001 (ip), vehicle: saline
[18] = dose: 400.0 mg/kg/injection, schedule: Q01DX001 (ip), vehicle: saline
[19] = dose: 100.0 mg/kg/injection, schedule: Q04DX003 (ip), vehicle: Klucel (hydroxypropylcellulose) (HPC)
[20] = dose: 200.0 mg/kg/injection, schedule: Q04DX003 (ip), vehicle: Klucel (hydroxypropylcellulose) (HPC)
[21] = dose: 400.0 mg/kg/injection, schedule: Q04DX003 (ip), vehicle: Klucel (hydroxypropylcellulose) (HPC)
[22] = dose: 50.0 mg/kg/injection, schedule: Q01DX009 (ip), vehicle: Klucel (hydroxypropylcellulose) (HPC)

Measured: T/C

CCCCC(SC(CC)(C(N)=O)c1ccccc1)C(=O)O (stereo not drawn)
inactive: [1] 90 % of control | [2] 102 % of control | [3] 90 % of control

CCOCCOCCOC(C)Oc1ccccc1OC (stereo not drawn)
inactive: dose: 100.0 mg/kg/injection, schedule: Q04DX002 (ip), vehicle: saline 111 % of control | dose: 200.0 mg/kg/injection, schedule: Q04DX002 (ip), vehicle: saline 96 % of control | dose: 400.0 mg/kg/injection, schedule: Q04DX002 (ip), vehicle: saline 114 % of control

O=[N+]([O-])c1ccc(O)c(CCl)c1
inactive: dose: 50.0 mg/kg/injection, schedule: Q04DX002 (ip), vehicle: saline with Tween-80 109 % of control | dose: 100.0 mg/kg/injection, schedule: Q04DX002 (ip), vehicle: DMSO 107 % of control | [4] 109 % of control | dose: 200.0 mg/kg/injection, schedule: Q04DX002 (ip), vehicle: DMSO 86 % of control | [5] 98 % of control | [6] 104 % of control

COc1cc(C)c(C(=O)Oc2cc(C)c(C(=O)O)c(O)c2C)c(OC)c1C
inactive: dose: 6.25 mg/kg/injection, schedule: Q01DX009 (ip), vehicle: saline 95 % of control | dose: 12.5 mg/kg/injection, schedule: Q01DX009 (ip), vehicle: saline 98 % of control | dose: 25.0 mg/kg/injection, schedule: Q01DX009 (ip), vehicle: saline 97 % of control and 98 % of control | dose: 37.5 mg/kg/injection, schedule: Q01DX Z (ip), vehicle: saline 93 % of control | dose: 75.0 mg/kg/injection, schedule: Q01DX Z (ip), vehicle: saline 98 % of control | dose: 100.0 mg/kg/injection, schedule: Q01DX Z (ip), vehicle: saline 96 % of control | dose: 150.0 mg/kg/injection, schedule: Q01DX Z (ip), vehicle: saline 93 % of control | dose: 300.0 mg/kg/injection, schedule: Q01DX Z (ip), vehicle: saline 98 % of control

CCC(C#N)=C1CCCCC1
inactive: dose: 25.0 mg/kg/injection, schedule: Q01DX009 (ip), vehicle: saline with Tween-80 91 % of control | [7] 99 % of control | [8] 97 % of control | [9] 100 % of control

CC1(C)COC(C2CC(=O)c3ccccc3C2)=N1 (stereo not drawn)
inactive: [7] 94 % of control | dose: 50.0 mg/kg/injection, schedule: Q04DX003 (ip), vehicle: saline 97 % of control | [8] 107 % of control | [9] 92 % of control | dose: 200.0 mg/kg/injection, schedule: Q01DX009 (ip), vehicle: saline with Tween-80 100 % of control | dose: 200.0 mg/kg/injection, schedule: Q04DX003 (ip), vehicle: saline 99 % of control | dose: 400.0 mg/kg/injection, schedule: Q01DX009 (ip), vehicle: saline with Tween-80 107 % of control | dose: 400.0 mg/kg/injection, schedule: Q04DX003 (ip), vehicle: saline 91 % of control

Cn1c(=O)c2c(nc(C3CC4C5CCC(C5)C4C3)n2C)n(C)c1=O (stereo not drawn)
inactive: [1] 103 % of control | [2] 95 % of control | [3] 95 % of control

O=C1OCC/C1=C\OCCc1ccccc1
inactive: dose: 100.0 mg/kg/injection, schedule: Q04DX002 (ip), vehicle: Klucel (hydroxypropylcellulose) (HPC) 98 % of control | dose: 200.0 mg/kg/injection, schedule: Q04DX002 (ip), vehicle: Klucel (hydroxypropylcellulose) (HPC) 94 % of control | dose: 400.0 mg/kg/injection, schedule: Q04DX002 (ip), vehicle: Klucel (hydroxypropylcellulose) (HPC) 94 % of control

CCOc1cc(/C=N/NC(=O)c2ccccc2NC(=O)c2ccccc2)ccc1OC
inactive: [10] 92 % of control | [11] 92 % of control | [12] 101 % of control

O=[N+]([O-])c1cccc(O)c1
inactive: dose: 50.0 mg/kg/injection, schedule: Q01DX009 (ip), vehicle: saline 99 % of control | [13] 92 % of control | dose: 100.0 mg/kg/injection, schedule: Q04DX003 (ip), vehicle: other 106 % of control | [14] 115 % of control | dose: 200.0 mg/kg/injection, schedule: Q04DX003 (ip), vehicle: other 112 % of control

CC(C)CC(NC(=O)OCc1ccccc1)C(=O)NCCCCCCNCCCCCCNC(=O)C(CC(C)C)NC(=O)OCc1ccccc1 (stereo not drawn)
inactive: [15] 95 % of control | [16] 98 % of control

CC1OC(=O)NC1C(=O)O (stereo not drawn)
inactive: [17] 120 % of control | [13] 91 % of control | dose: 100.0 mg/kg/injection, schedule: Q04DX003 (ip), vehicle: saline with Tween-80 106 % of control | [16] 98 % of control | [14] 101 % of control | dose: 200.0 mg/kg/injection, schedule: Q04DX003 (ip), vehicle: saline with Tween-80 103 % of control | [18] 101 % of control | dose: 400.0 mg/kg/injection, schedule: Q01DX009 (ip), vehicle: saline 89 % of control | dose: 400.0 mg/kg/injection, schedule: Q04DX003 (ip), vehicle: saline with Tween-80 95 % of control

O=C(O)C(CSC(c1ccccc1)c1ccccc1)NC(=O)C(c1ccccc1)c1ccccc1 (stereo not drawn)
inactive: [10] 112 % of control | [19] 97 % of control | [11] 101 % of control | [20] 99 % of control | [12] 98 % of control | [21] 94 % of control

Cc1ccc(NC(=S)NN)cc1C
inactive: [22] 94 % of control | [10] 100 % of control | [19] 94 % of control | [20] 97 % of control

S=P(c1ccccc1)(c1ccccc1)N1CCCCC1
inactive: [4] 96 % of control | [5] 93 % of control | [6] 93 % of control

O=C(O)C1C2CCC3C(C(=O)O)C3C21 (stereo not drawn)
inactive: [10] 100 % of control | [19] 97 % of control | [11] 97 % of control | [20] 101 % of control | [12] 92 % of control | [21] 98 % of control

O=C1c2ccccc2C(=O)N1c1cccc([N+](=O)[O-])c1
inactive: [22] 114 % of control | [10] 90 % of control | [11] 114 % of control

Cc1cccc(OCC(O)CN2CCN(c3ccccc3)CC2)c1 (stereo not drawn)
inactive: [22] 104 % of control | [10] 101 % of control | [11] 115 % of control

CC(=O)Nc1ccc(S(=O)(=O)NC(C(=O)O)C(=O)O)cc1
inactive: [17] 100 % of control | [16] 103 % of control | [18] 103 % of control

CCCCCCCCCCCCC[n+]1cccc(C#N)c1
inactive: dose: 5.0 mg/kg/injection, schedule: Q04DX003 (ip), vehicle: saline 100 % of control | dose: 10.0 mg/kg/injection, schedule: Q01DX001 (ip), vehicle: saline 94 % of control | dose: 10.0 mg/kg/injection, schedule: Q04DX003 (ip), vehicle: saline 96 % of control | dose: 20.0 mg/kg/injection, schedule: Q01DX001 (ip), vehicle: saline 103 % of control | dose: 20.0 mg/kg/injection, schedule: Q04DX003 (ip), vehicle: saline 96 % of control

Sc1cccc2cccnc12.[Ni]
inactive: [15] 111 % of control | [17] 98 % of control | [16] 98 % of control | [18] 98 % of control

CCOC(=O)/C(C(C)=O)=C(/O)c1ccc(OC(F)(F)C(F)Cl)cc1OC(F)(F)C(F)Cl.CCOC(=O)/C(C(C)=O)=C(/O)c1ccc(OC(F)(F)C(F)Cl)cc1OC(F)(F)C(F)Cl.[Cu] (stereo not drawn)
inactive: [10] 88 % of control | [19] 100 % of control | [11] 94 % of control | [20] 101 % of control | [21] 101 % of control

CCCCNC(=O)Nc1ccc(C)c(Cl)c1
inactive: [10] 96 % of control | [19] 94 % of control | [11] 94 % of control | [20] 94 % of control | [12] 89 % of control | [21] 100 % of control

CN(C)S(=O)(=O)c1ccc(N)cc1
inactive: dose: 100.0 mg/kg/injection, schedule: Q01DX001 (ip), vehicle: other 91 % of control | dose: 200.0 mg/kg/injection, schedule: Q01DX001 (ip), vehicle: other 101 % of control | dose: 400.0 mg/kg/injection, schedule: Q01DX001 (ip), vehicle: other 90 % of control
